Laboratory results from US4606860A, “Rhodanines useful as a therapeutic agent for diabetic complications” (Kaken Pharmaceutical Co., Ltd., priority 1984, dated 1986).
Structures can show the parent of a compound that is named as a salt.

Tested on: thrombin-induced aggregation of washed rabbit platelets
Test: Platelet aggregation inhibiting activity (thrombin-stimulated washed rabbit platelets, aggregometer)
Type: cell-based, rabbit (albino, white local breed)
Details: Oryctolagus cuniculus, Platelet, 2 min, read-out: IC50 (50 % inhibition concentration), platelet aggregation
Protocol: The platelets were suspended in a 15 mM Tris-hydrochloric acid buffer in a final concentration of 6×10^8 cells/ml (Tris: tris(hydroxymethyl)aminomethane). Each test compound was added thereto and incubation was carried out at 37° C. for 2 minutes. Then, the platelets were stimulated by addition of thrombin (final concentration 0.2 unit/ml; made by Mochida Pharmaceutical Co.) and the aggregation inhibiting activity was estimated by observation of the aggregation reaction using an aggregometer (made by Briston Co.).

| SMILES | IC50 |
| --- | --- |
| COc1cccc(NC=C2SC(=S)N(CC(=O)O)C2=O)c1 [Compound No. 7, 3-Carboxymethyl-5-m-methoxyphenylaminomethylidene-rhodanine] | 310 µM |
| Cc1cccc(NC=C2SC(=S)N(CC(=O)O)C2=O)c1 [Compound No. 11, 3-Carboxymethyl-5-m-methylphenylaminomethylidenerhodanine] | 320 µM |
| O=C(O)CN1C(=O)C(=CNc2ccccc2-c2ccccc2)SC1=S [Compound No. 15, 3-Carboxymethyl-5-(2-biphenylyl)aminomethylidenerhodanine] | 410 µM |

Same assay, conditions: Oryctolagus cuniculus, Platelet, 2 min; washed rabbit platelets 6×10^8 cells/ml; thrombin 0.2 unit/ml; 37° C., 2 minutes; Table 3; read-out: IC50 (50 % inhibition concentration), platelet aggregation

| IC50 | SMILES |
| --- | --- |
| 310 µM | COc1ccccc1NC=C1SC(=S)N(CC(=O)O)C1=O [Compound No. 8, 3-Carboxymethyl-5-o-methoxyphenylaminomethylidenerhodanine] |
| 300 µM | O=C(O)CN1C(=O)C(=CNc2ccc(Br)cc2)SC1=S [Compound No. 10, 3-Carboxymethyl-5-p-bromophenylaminomethylidenerhodanine] |
| 200 µM | OCCN(CCO)c1nc(N2CCCCC2)c2nc(N(CCO)CCO)nc(N3CCCCC3)c2n1 [Dipyridamole, reference compound] |

Same assay, conditions: Oryctolagus cuniculus, Platelet; washed rabbit platelets; read-out: concentration inhibiting thrombin-induced aggregation by 50%

| SMILES | IC50 |
| --- | --- |
| COc1cccc(NC=C2SC(=S)N(CC(=O)O)C2=O)c1 [Compound No. 7, 3-Carboxymethyl-5-m-methoxyphenylaminomethylidene-rhodanine] | 300 µM |
| COc1ccccc1NC=C1SC(=S)N(CC(=O)O)C1=O [Compound No. 8, 3-Carboxymethyl-5-o-methoxyphenylaminomethylidenerhodanine] | 300 µM |
| O=C(O)CN1C(=O)C(=CNc2cccc(Cl)c2)SC1=S [Compound No. 9, 3-Carboxymethyl-5-m-chlorophenylaminomethylidenerhodanine] | 300 µM |
| O=C(O)CN1C(=O)C(=CNc2ccc(Br)cc2)SC1=S [Compound No. 10, 3-Carboxymethyl-5-p-bromophenylaminomethylidenerhodanine] | 300 µM |
| Cc1cccc(NC=C2SC(=S)N(CC(=O)O)C2=O)c1 [Compound No. 11, 3-Carboxymethyl-5-m-methylphenylaminomethylidenerhodanine] | 300 µM |

Same assay, conditions: comparison with other compounds or Dipyridamole (Persantine)

| SMILES | platelet aggregation inhibiting activity, in words |
| --- | --- |
| COc1cccc(NC=C2SC(=S)N(CC(=O)O)C2=O)c1 [Compound No. 7, 3-Carboxymethyl-5-m-methoxyphenylaminomethylidene-rhodanine] | almost comparable in said activity to Dipyridamole |
| COc1ccccc1NC=C1SC(=S)N(CC(=O)O)C1=O [Compound No. 8, 3-Carboxymethyl-5-o-methoxyphenylaminomethylidenerhodanine] | almost comparable in said activity to Dipyridamole |
| O=C(O)CN1C(=O)C(=CNc2cccc(Cl)c2)SC1=S [Compound No. 9, 3-Carboxymethyl-5-m-chlorophenylaminomethylidenerhodanine] | almost comparable in said activity to Dipyridamole |
| O=C(O)CN1C(=O)C(=CNc2ccc(Br)cc2)SC1=S [Compound No. 10, 3-Carboxymethyl-5-p-bromophenylaminomethylidenerhodanine] | almost comparable in said activity to Dipyridamole |
| Cc1cccc(NC=C2SC(=S)N(CC(=O)O)C2=O)c1 [Compound No. 11, 3-Carboxymethyl-5-m-methylphenylaminomethylidenerhodanine] | almost comparable in said activity to Dipyridamole |

Target: T1, aldose reductase (Rattus norvegicus, UniProt P07943)
T1 construct: the supernatant was used as the crude enzyme solution; from tissue; host or cells: lens of male Wistar rats (10,000 g supernatant of homogenate, crude enzyme)
Test: Aldose reductase inhibiting activity (crude enzyme from rat lens, NADPH absorbance at 340 nm)
Type: biochemical, rat (Wistar strain)
Details: DL-glyceraldehyde 10 mM, NADPH 0.104 mM, pH 6.2, Table 4, read-out: IC50 (50% inhibition concentration), aldose reductase
Protocol: Thus, Wistar strain male rats were sacrificed by decapitation, the lenses were excised and homogenized with a 0.1 M phosphate buffer [pH 6.8; containing 1 mM of mercaptoethanol and 1 mM of nicotinamide-adenine dinucleotide phosphate (NADP)]. The homogenate was then centrifuged at 10,000 g for 15 minutes and the supernatant was used as the crude enzyme solution.
To this buffer solution, there was added 15 μl of each of solutions of each test compound in varied concentrations, followed by addition of 25 μl of the crude enzyme solution prepared in advance, to thereby initiate the reaction.

| SMILES | IC50 |
| --- | --- |
| CNC=C1SC(=S)N(CC(=O)O)C1=O [Compound No. 1, 3-Carboxymethyl-5-methylaminomethylidenerhodanine] | 1300 nM |
| O=C(O)CN1C(=O)C(=CNCCO)SC1=S [Compound No. 3, Ethanolamine salt of 3-Carboxymethyl-5-hydroxyethylaminomethylidenerhodanine] | 700 nM |
| CC(C)CNC=C1SC(=S)N(CC(=O)O)C1=O [Compound No. 5, 3-Carboxymethyl-5-isobutylaminomethylidenerhodanine] | 600 nM |
| CCCCCCNC=C1SC(=S)N(CC(=O)O)C1=O [Compound No. 6, 3-Carboxymethyl-5-hexylaminomethylidenerhodanine] | 280 nM |
| COc1cccc(NC=C2SC(=S)N(CC(=O)O)C2=O)c1 [Compound No. 7, 3-Carboxymethyl-5-m-methoxyphenylaminomethylidene-rhodanine] | 26 nM |
| O=C(O)CN1C(=O)C(=CNc2cccc(Cl)c2)SC1=S [Compound No. 9, 3-Carboxymethyl-5-m-chlorophenylaminomethylidenerhodanine] | 23 nM |
| O=C(O)CN1C(=O)C(=CNc2ccc(Br)cc2)SC1=S [Compound No. 10, 3-Carboxymethyl-5-p-bromophenylaminomethylidenerhodanine] | 50 nM |
| Cc1cccc(NC=C2SC(=S)N(CC(=O)O)C2=O)c1 [Compound No. 11, 3-Carboxymethyl-5-m-methylphenylaminomethylidenerhodanine] | 36 nM |
| O=C(O)CN1C(=O)C(=CNc2ccccc2-c2ccccc2)SC1=S [Compound No. 15, 3-Carboxymethyl-5-(2-biphenylyl)aminomethylidenerhodanine] | 150 nM |

More lines, now with the values ahead:

| IC50 | SMILES |
| --- | --- |
| 650 nM | CN(C)C=C1SC(=S)N(CC(=O)O)C1=O [Compound No. 2, 3-Carboxymethyl-5-dimethylaminomethylidenerhodanine] |
| 300 nM | C=CCNC=C1SC(=S)N(CC(=O)O)C1=O [Compound No. 4, 3-Carboxymethyl-5allylaminomethylidenerhodanine] |
| 50 nM | COc1ccccc1NC=C1SC(=S)N(CC(=O)O)C1=O [Compound No. 8, 3-Carboxymethyl-5-o-methoxyphenylaminomethylidenerhodanine] |
| 340 nM | O=C(O)CN1C(=O)C(=CN2CCOCC2)SC1=S [Compound No. 12, 3-Carboxymethyl-5-morpholinomethylidenerhodanine] |
| 200 nM | CN1CCN(C=C2SC(=S)N(CC(=O)O)C2=O)CC1 [Compound No. 13, 3-Carboxymethyl-5-N-methylpiperazinomethylidenerhodanine] |
| 1300 nM | CN1CCCN(C=C2SC(=S)N(CC(=O)O)C2=O)CC1 [Compound No. 14, 3-Carboxymethyl-5-N-methylhomopiperazinomethylidenerhodanine] |

Tested on: not listed separately
Test: Acute toxicity in mice (oral)
Type: in vivo
Details: mouse, in vivo, male ddY mice, 2 weeks
Source text: (§1) The acute toxicity in mice was examined with the rhodanine derivative (I) of the present invention.

| SMILES | LD50 at 336 h |
| --- | --- |
| COc1cccc(NC=C2SC(=S)N(CC(=O)O)C2=O)c1 [Compound No. 7, 3-Carboxymethyl-5-m-methoxyphenylaminomethylidene-rhodanine] | > 4000 mg/kg |
| O=C(O)CN1C(=O)C(=CNc2cccc(Cl)c2)SC1=S [Compound No. 9, 3-Carboxymethyl-5-m-chlorophenylaminomethylidenerhodanine] | > 4000 mg/kg |
| Cc1cccc(NC=C2SC(=S)N(CC(=O)O)C2=O)c1 [Compound No. 11, 3-Carboxymethyl-5-m-methylphenylaminomethylidenerhodanine] | > 4000 mg/kg |
| O=C(O)CN1C(=O)C(=CNc2ccccc2-c2ccccc2)SC1=S [Compound No. 15, 3-Carboxymethyl-5-(2-biphenylyl)aminomethylidenerhodanine] | > 4000 mg/kg |

Tested on: male ddY strain mice
Test: Acute toxicity in mice (oral)
Type: in vivo
Details: 2 weeks
Source text: as §1

| SMILES | deaths noted up to a dose of 4 g/kg body weight |
| --- | --- |
| COc1cccc(NC=C2SC(=S)N(CC(=O)O)C2=O)c1 [Compound No. 7, 3-Carboxymethyl-5-m-methoxyphenylaminomethylidene-rhodanine] | no deaths were noted |
| O=C(O)CN1C(=O)C(=CNc2cccc(Cl)c2)SC1=S [Compound No. 9, 3-Carboxymethyl-5-m-chlorophenylaminomethylidenerhodanine] | no deaths were noted |
| Cc1cccc(NC=C2SC(=S)N(CC(=O)O)C2=O)c1 [Compound No. 11, 3-Carboxymethyl-5-m-methylphenylaminomethylidenerhodanine] | no deaths were noted |
| O=C(O)CN1C(=O)C(=CNc2ccccc2-c2ccccc2)SC1=S [Compound No. 15, 3-Carboxymethyl-5-(2-biphenylyl)aminomethylidenerhodanine] | no deaths were noted |
